Experimental data as given in US10174015B2, “Substituted heterocyclic derivative, preparation method and use thereof” (Xiamen University, priority 2014, dated 2019).
Where two headings read alike, the source gives them in different places. Marks after values point to notes of the source that are not given here.

Legend:
SNI neuropathic pain = experiment: Neuropathic pain mouse model induced by spared nerve injury (SNI); assay type: in vivo, C57BL/6 mice; conditions: SNI mice, 10 mg/kg i.p. (gabapentin 100 mg/kg), 4 h after administration
Method: In the Experimental example, compounds to be evaluated or compounds to be tested or test compounds used are the Compounds 1-46 prepared in the Examples according to the invention. In the Experimental example, all the agents for injection, including compounds to be evaluated or compounds to be tested or test compounds, and positive control drug, were dissolved in a mixed solvent of PEG400:Tween 80:normal saline (at a volume ratio of 5:5:90), at a concentration of 5 mg/mL.
Neuropathic pain mouse model induced by spared nerve injury (SNI) is a common animal model for studying neuropathic pain medically. The invention uses the model to evaluate the therapeutic effects of the compounds on neuropathic pain, wherein the model can represent peripheral neuropathic pain including, but not limited to post-herpetic neuralgia, pain caused by diabetic perineuropathy, neurothlipsis and exudation caused by tumor, lumbar surgery failure syndrome, neuropathic pain caused by lumbar disc protrusion, postpartum neuralgia, trigeminal neuralgia, chemotherapy-induced multiple neuropathic pain, post-radiotherapy plexopathy, and radicular neuralgia.
C57BL/6 mice (purchased from Shanghai SLAC Laboratory Animal Co., Ltd) were anesthetized by intraperitoneal injection with pentobarbital sodium (40 mg/kg), and skin from knee joint to gluteal region was subjected to skin preparation and disinfection. After the mice were fixed, the knee joint part was cut about 1 cm longitudinally with bistoury, and muscle tissues were separated by blunt dissection to expose sciatic nerve. The tibial and common peroneal nerve branches of sciatic nerve stem were cut off carefully, and the cut was then stitched up. The mice was placed in a clean observation cage. In the sham-operation group, only sciatic nerve was exposed without cutting the tibial and common peroneal nerve branches. From the day before the experiment to 24 h after the operation, the plantar edges of the mice were stimulated everyday by […] (Ugo Basile Company (Italy), Product ID: 37450), and data was collected automatically to obtain the threshold value of mice to mechanical stimulation. […] The positive control drug gabapentin was administered at a dose of 100 mg/kg. All the agents to be injected were dissolved in a mixed solvent of PEG400:Tween 80:normal saline (at a volume ratio of 5:5:90), at a concentration of 5 mg/mL. By comparing the threshold values (the acting force of when the mouse retracting the paw) at different administration time in different administration groups, the compound was evaluated for its analgesic effect on neuropathic pain.

[1] = system: adjuvant-induced arthritis rat models; experiment: Adjuvant-induced osteoarthritis pain, foot swelling degree; assay type: in vivo, rats; conditions: X ± S, n = 10, 10 mg/Kg
Method: Typical model for studying inflammatory pain medically was used to evaluate the therapeutic effects of compounds on inflammatory pain. 0.1 mL Freund's complete adjuvant was intradermally injected to toe of the left hind foot of the rats in each group to obtain adjuvant-induced arthritis rat models. Foot volume method was used to measure primary and secondary foot swelling degree (swelling degree=volume after inflammation−volume before inflammation), and polyarticular arthritis were scored (5 scoring grades: 0 represents no red swelling; 4 represents red swelling at all the paws including anklebone. The scores are accumulated according to the lesion degree of the rest three limbs not injected with adjuvant, and the highest score is 12). Before inflammation and at 6 h, 12 h, 18 h and 24 h after inflammation, Paw Volume Meter was used to measure the foot volume at the inflammatory side, and the swelling degree was calculated. The model can represent inflammatory pain including, but not only limited to: osteoarthritis pain and fibromyalgia syndrome, inflammatory pain of rheumatic and rheumatoid arthritis, inflammatory pain of endometriosis, inflammatory toothache, ankylosing spondylitis pain, and gouty arthritis pain.

zebrafish embryos [2] = assay type: in vivo; conditions: for Death number (72 h): n = 30; for Body length (72 h) / Hatching number (72 h) / Heartbeat (72 h) / Unhatching number (72 h) / hatching rate: zebrafish, in vivo
Method: By the same method described above, zebrafish fertilized eggs were cultured. 7 Groups were set for each test compound, including 5 experimental groups relating to the test compound at different concentrations (solutions containing the test compound at different concentrations were prepared by using zebrafish embryo culture medium, wherein the concentrations were 100 mg/L, 10 mg/L, 1 mg/L, 0.1 mg/L, 0.01 mg/L), 1 solvent control group (DMSO) and 1 blank control group. The fertilized eggs were placed and cultured in a 28.5° C. incubator, a certain humidity was ensured in the culture environment. Culture medium containing a test compound was prepared, and the culture medium was added to a 96-well plate in advance, and each fertilized egg (by reference to the experimental method in OECD No. 212 document, fertilized eggs, which developed normally within 24 h after fertilization, were selected and subjected to exposure. Transparent fish eggs visible to naked eye were normally fertilized, while white fish eggs were dead and discarded. After the selection, the normally fertilized eggs had begun to divide as observed under microscope) was then independently placed in a different well, and cultured in the culture medium containing a test compound at a different concentration. Embryo development status at different stages were observed and photographed with invert microscope, including:
I. Morphological observation: the developmental states of fertilized eggs (yolk being coagulated or not, eye spot, pericardial sac being edematous or not, bloodstream being existing or not, tail development status, and the like) were observed and photographed at 48 h, 72 h, and 96 h;
II. Hatching number and death number were counted at 72 h after fertilization, and hatching rate and mortality were calculated;
III. Body length of the hatched young fishes at 72 h was measured (measured after photographing with invert microscope); […]
(§1) V. Heartbeat of young fishes (times/min) was recorded at 72 h and 96 h after fertilization (Recording method: heartbeat of young fishes could be clearly observed under microscope, and the number of heartbeats was recorded for 30 s).

zebrafish embryos [3] = assay type: in vivo; conditions: for Death number (72 h) / Hatching number (72 h) / Unhatching number (72 h): n = 30
Method: Fertilized eggs (donated by Zebrafish Research Group, School of Life Sciences, Xiamen University) were incubated in freshly prepared zebrafish embryo culture medium, which was replaced by fresh culture medium every day, and cultured in 28.5° C. incubator. Pure water was placed in the incubator to ensure a certain humidity in the culture environment. The formulation for zebrafish embryo culture medium was following: 5 mM NaCl, 0.17 mM KCl, 0.33 mM CaCl2, 0.33 mM MgSO4, 10-5% methylene blue. The culture medium was prepared with pure water. For example, NaCl: 292.2 mg, KCl: 12.68 mg, CaCl2: 36.63 mg, MgSO4: 39.72 mg, and methylene blue: 0.1 μL were needed for the preparation of 1 L culture medium.
7 Groups were set for each test compound, including 5 experimental groups relating to the test compound at different concentrations (solutions containing the test compound at different concentrations were prepared by using zebrafish embryo culture medium, wherein the concentrations were 10 mg/L, 3 mg/L, 1 mg/L, 0.3 mg/L, 0.1 mg/L), 1 solvent control group (DMSO) and 1 blank control group. The positive control drug was OTC analgesic ibuprofen at concentrations as described above. A 96-well cell culture plate was used to perform the experiment, three wells in parallel were used for each experimental group, and 10 fish eggs were contained in each well.
Culture medium containing a test compound was prepared, and the culture medium was added to a 96-well plate in advance, and each fertilized egg (by reference to the experimental method in OECD No. 212 document, fertilized eggs, which developed normally within 2 h after fertilization, were selected and subjected to exposure. Transparent fish eggs visible to naked eye were normally fertilized, while white fish eggs were dead and discarded. After the selection, the normally fertilized eggs had begun to divide as observed under microscope) was then independently placed in a different well, and cultured in the culture medium containing a test compound at a different concentration. Embryo development status at different stages was observed and photographed with invert microscope, including: […]
II. Hatching number and death number were counted at 72 h after fertilization, and hatching rate and mortality were calculated; […]
as §1

Which “effect of inhibiting central neuropathic pain” value (SNI neuropathic pain) does the source give for NCC1(CC(=O)O)CCCCC1 [gabapentin, reference compound] here?
The value was “disappeared gradually”.

How did the “Foot swelling degree after inflammation” value ([1]; 6 h) turn out when O=C(Cc1cccc(-c2ccccc2)c1)N1CCOC1=O [Compound 14, 3-Biphenylacetyl Oxazolidinone] was run?
The value was 0.75 ± 0.11^c mL.

And the “Foot swelling degree after inflammation” value ([1]; 12 h)?
The value was 1.06 ± 0.19^c mL.

What about the “Foot swelling degree after inflammation” value ([1]; 18 h) of the same compound?
Its value is 1.43 ± 0.25^b mL.

What about the “Foot swelling degree after inflammation” value ([1]; 24 h) of the same compound?
The value was 1.36 ± 0.18^b mL.

Which results are given for CC(C)Cc1ccc(C(C)C(=O)O)cc1 (centres unmarked) [ibuprofen, reference compound]?
Death number (72 h) (zebrafish embryos [2]; 0.01 mg/L): 0; Death number (72 h) (zebrafish embryos [2]; 0.1 mg/L): 0; Death number (72 h) (zebrafish embryos [2]; 1 mg/L): 2; mortality (zebrafish embryos [2]; 10 mg/L, 72 h): 100%; Death number (72 h) (zebrafish embryos [2]; 10 mg/L): 30; observation of zebrafish embryo development (zebrafish embryos [2]; 100 mg/L, 48 h): all the zebrafish embryos died; Death number (72 h) (zebrafish embryos [2]; 100 mg/L): 30; Body length (72 h) (zebrafish embryos [2]; 72 h, 0.01 mg/L): 3.97 ± 0.06 mm; Hatching number (72 h) (zebrafish embryos [2]; 72 h, 0.01 mg/L): 25; Heartbeat (72 h) (zebrafish embryos [2]; 72 h, 0.01 mg/L): 125 ± 2.16 per min; Unhatching number (72 h) (zebrafish embryos [2]; 72 h, 0.01 mg/L): 5; Body length (72 h) (zebrafish embryos [2]; 72 h, 0.1 mg/L): 3.88 ± 0.15 mm; Hatching number (72 h) (zebrafish embryos [2]; 72 h, 0.1 mg/L): 22; Heartbeat (72 h) (zebrafish embryos [2]; 72 h, 0.1 mg/L): 124 ± 2.25 per min; Unhatching number (72 h) (zebrafish embryos [2]; 72 h, 0.1 mg/L): 8; Body length (72 h) (zebrafish embryos [2]; 72 h, 1 mg/L): 3.97 ± 0.08 mm; Hatching number (72 h) (zebrafish embryos [2]; 72 h, 1 mg/L): 17; Heartbeat (72 h) (zebrafish embryos [2]; 72 h, 1 mg/L): 124 ± 1.67 per min; Unhatching number (72 h) (zebrafish embryos [2]; 72 h, 1 mg/L): 11; hatching rate (zebrafish embryos [2]; 72 h, 1 mg/L): 56.7%; Hatching number (72 h) (zebrafish embryos [2]; 72 h, 10 mg/L): 0; Unhatching number (72 h) (zebrafish embryos [2]; 72 h, 10 mg/L): 0; hatching rate (zebrafish embryos [2]; 72 h, 10 mg/L): 0%; Hatching number (72 h) (zebrafish embryos [2]; 72 h, 100 mg/L): 0; Unhatching number (72 h) (zebrafish embryos [2]; 72 h, 100 mg/L): 0; Body length (72 h) (zebrafish embryos [3]; 0.1 mg/L): 3.94 ± 0.14 mm; Heartbeat (72 h) (zebrafish embryos [3]; 0.1 mg/L): 125 ± 2.40 per min; Death number (72 h) (zebrafish embryos [3]; 0.1 mg/L): 8; Hatching number (72 h) (zebrafish embryos [3]; 0.1 mg/L): 22; Unhatching number (72 h) (zebrafish embryos [3]; 0.1 mg/L): 0; Body length (72 h) (zebrafish embryos [3]; 0.3 mg/L): 3.95 ± 0.09 mm; Heartbeat (72 h) (zebrafish embryos [3]; 0.3 mg/L): 125 ± 2.48 per min; Death number (72 h) (zebrafish embryos [3]; 0.3 mg/L): 8; Hatching number (72 h) (zebrafish embryos [3]; 0.3 mg/L): 20; Unhatching number (72 h) (zebrafish embryos [3]; 0.3 mg/L): 2; Body length (72 h) (zebrafish embryos [3]; 1 mg/L): 3.77 ± 0.18 mm; Heartbeat (72 h) (zebrafish embryos [3]; 1 mg/L): 126 ± 2.56 per min; hatching rate (zebrafish embryos [3]; 1 mg/L, 72 h): 56.67%; Death number (72 h) (zebrafish embryos [3]; 1 mg/L): 13; Hatching number (72 h) (zebrafish embryos [3]; 1 mg/L): 17; Unhatching number (72 h) (zebrafish embryos [3]; 1 mg/L): 0; Death number (72 h) (zebrafish embryos [3]; 3 mg/L): 28; Hatching number (72 h) (zebrafish embryos [3]; 3 mg/L): 0; Unhatching number (72 h) (zebrafish embryos [3]; 3 mg/L): 2; Death number (72 h) (zebrafish embryos [3]; 10 mg/L): 30; Hatching number (72 h) (zebrafish embryos [3]; 10 mg/L): 0; Unhatching number (72 h) (zebrafish embryos [3]; 10 mg/L): 0

COc1ccc2c(c1)c(CC(=O)O)c(C)n2C(=O)c1ccc(Cl)cc1 [indometacin, reference compound] was tested. Which “Foot swelling degree after inflammation” value ([1]; 6 h) did it give?
Its value is 0.57 ± 0.16^c mL.

What about the “Foot swelling degree after inflammation” value ([1]; 12 h) of the same compound?
The value was 0.96 ± 0.21^c mL.

What about the “Foot swelling degree after inflammation” value ([1]; 18 h) of the same compound?
Its value is 1.32 ± 0.22^b mL.

What about the “Foot swelling degree after inflammation” value ([1]; 24 h) of the same compound?
The value was 1.08 ± 0.26^c mL.
